# Tests used:
# [1] = system: Mus musculus; assay: Anti-inflammatory activity in para-xylene-induced Kunming mouse ear-swelling model assessed as inhibition of ear swelling at 40 mg/kg, ig measured after 1 hr relative to control; format: functional; conditions: po
# [2] = system: RAW264.7; assay: Cytotoxicity against mouse RAW264.7 cells at < 50 uM by MTT assay; format: cell-based
# [3] = system: RAW264.7; assay: Anti-inflammatory activity in mouse RAW264.7 cells assessed as inhibition of LPS-induced IL-6 production pretreated for 2 hrs followed by LPS challenge measured after 22 hrs by ELISA; format: functional, cell-based
# [4] = system: RAW264.7; assay: Anti-inflammatory activity in mouse RAW264.7 cells assessed as inhibition of LPS-induced TNF-alpha production pretreated for 2 hrs followed by LPS challenge measured after 22 hrs by ELISA; format: functional, cell-based
# [5] = system: Mus musculus; assay: Anti-inflammatory activity in para-xylene-induced Kunming mouse ear-swelling model assessed as inhibition of ear swelling at 100 mg/kg, ig measured after 1 hr relative to control; format: functional; conditions: po
# [6] = system: Mus musculus; assay: Anti-inflammatory activity in para-xylene-induced Kunming mouse ear-swelling model assessed as inhibition of ear swelling at 5 mg/kg, ig measured after 1 hr relative to control; format: functional; conditions: po
Compound,inhibition in vivo at 40 mg/kg [1] [%],other results
O=C(/C=C/c1ccccc1)c1ccc(N2CCN(c3cccc(C(F)(F)F)c3)CC2)cc1,25,
Cc1cc(C)c(S(=O)(=O)N2CCN(c3ccc(C(=O)/C=C/c4ccccc4)cc3)CC2)c(C)c1,55.5,
O=C(/C=C/c1ccccc1)c1ccc(N2CCN(S(=O)(=O)c3ccc(OC(F)(F)F)cc3)CC2)cc1,47.4,
COc1cccc(N2CCN(c3ccc(C(=O)/C=C/c4ccc(Cl)cc4)cc3)CC2)c1,2.28,
O=C(/C=C/c1ccccc1)c1ccc(N2CCN(c3ccc([N+](=O)[O-])cc3)CC2)cc1,55.4,
O=C(/C=C/c1ccccc1)c1ccc(N2CCN(c3cccc(Cl)c3Cl)CC2)cc1,30.7,
O=C(/C=C/c1ccc(Cl)cc1)c1ccc(N2CCN(c3cccc(Cl)c3)CC2)cc1,5.85,
O=C(/C=C/c1ccccc1)c1ccc(N2CCN(c3ccccc3)CC2)cc1,3.71,
COc1ccc(/C=C/C(=O)c2ccc(N3CCN(S(=O)(=O)c4ccc(Br)cc4)CC3)cc2)cc1OC,75.5,Activity [2]: Non-Toxic; inhibition [3]: Dose-dependent effect; inhibition [4]: Dose-dependent effect
O=C(/C=C/c1ccccc1)c1ccc(N2CCN(S(=O)(=O)c3ccccc3)CC2)cc1,30,
CC(=O)Oc1ccccc1C(=O)O [ASPIRIN],,inhibition in vivo at 100 mg/kg [5]: 64.9%
Cc1ccc(S(=O)(=O)N2CCN(c3ccc(C(=O)/C=C/c4ccccc4)cc3)CC2)cc1,30.8,
COc1ccc(/C=C/C(=O)c2ccc(N3CCN(c4ccc(C)cc4C)CC3)cc2)cc1OC,48.5,
O=C(/C=C/c1ccccc1)c1ccc(N2CCN(c3ccccc3F)CC2)cc1,0.57,
O=C(/C=C/c1ccccc1)c1ccc(N2CCN(Cc3ccccc3)CC2)cc1,17.7,
COc1ccccc1N1CCN(c2ccc(C(=O)/C=C/c3ccc(Cl)cc3)cc2)CC1,6.13,
COc1ccc(N2CCN(c3ccc(C(=O)/C=C/c4ccc(Cl)cc4)cc3)CC2)cc1,55.1,
O=C(/C=C/c1ccccc1)c1ccc(N2CCN(S(=O)(=O)c3ccc4ccccc4c3)CC2)cc1,35,
COc1cccc(N2CCN(c3ccc(C(=O)/C=C/c4ccccc4)cc3)CC2)c1,16,

Compound,inhibition in vivo at 40 mg/kg [1] [%],other results
O=C(/C=C/c1ccccc1)c1ccc(N2CCN(c3ccc(Cl)c(Cl)c3)CC2)cc1,13.4,
COc1ccc(S(=O)(=O)N2CCN(c3ccc(C(=O)/C=C/c4ccc(OC)c(OC)c4)cc3)CC2)cc1,64,
O=C(/C=C/c1ccccc1)c1ccc(N2CCN(c3cccc(Cl)c3)CC2)cc1,14.1,
Cc1ccc(N2CCN(c3ccc(C(=O)/C=C/c4ccc(Cl)cc4)cc3)CC2)c(C)c1,25.7,
Cc1ccc(N2CCN(c3ccc(C(=O)/C=C/c4ccccc4)cc3)CC2)cc1,2.85,
CCCCc1ccc(S(=O)(=O)N2CCN(c3ccc(C(=O)/C=C/c4ccccc4)cc3)CC2)cc1,24,
CC(C)c1cc(C(C)C)c(S(=O)(=O)N2CCN(c3ccc(C(=O)/C=C/c4ccccc4)cc3)CC2)c(C(C)C)c1,60.1,
Cc1ccc(-c2cc(C(F)(F)F)nn2-c2ccc(S(N)(=O)=O)cc2)cc1 [CELECOXIB],,inhibition in vivo at 5 mg/kg [6]: 77%
O=C(/C=C/c1ccc(Cl)cc1)c1ccc(N2CCN(S(=O)(=O)c3ccc(Cl)cc3)CC2)cc1,56.6,
O=C(/C=C/c1ccccc1)c1ccc(N2CCN(c3ccccc3Cl)CC2)cc1,4.71,
O=C(/C=C/c1ccc(Cl)cc1)c1ccc(N2CCN(S(=O)(=O)c3ccc(C(F)(F)F)cc3)CC2)cc1,59.6,
COc1ccc(S(=O)(=O)N2CCN(c3ccc(C(=O)/C=C/c4ccccc4)cc3)CC2)cc1,45.2,
COc1ccc(S(=O)(=O)N2CCN(c3ccc(C(=O)/C=C/c4ccccc4)cc3)CC2)cc1OC,55.5,
O=C(/C=C/c1ccccc1)c1ccc(N2CCN(S(=O)(=O)c3ccc(Br)cc3)CC2)cc1,47.4,
Cc1ccc(N2CCN(c3ccc(C(=O)/C=C/c4ccccc4)cc3)CC2)c(C)c1,15,
COc1ccc(/C=C/C(=O)c2ccc(N3CCN(c4ccc(Cl)c(Cl)c4)CC3)cc2)cc1OC,63.5,
O=C(/C=C/c1ccccc1)c1ccc(N2CCN(S(=O)(=O)c3ccc(C(F)(F)F)cc3)CC2)cc1,47.9,
O=C(/C=C/c1ccccc1)c1ccccc1 [CHALCONE],21.7,
O=C(/C=C/c1ccccc1)c1ccc(N2CCN(S(=O)(=O)c3ccc(Cl)cc3)CC2)cc1,46.8,

# Reference: ChEMBL document CHEMBL4000197, “Design, synthesis, biological evaluation, and molecular docking of chalcone derivatives as anti-inflammatory agents” (Bioorg Med Chem Lett, 2017)
